Experimental data: patent US11247990B1, “Bicyclic fused pyridine compounds as inhibitors of TAM kinases” (ARRAY BIOPHARMA INC., priority 2017, dated 2022)

Columns and labels:
Conditions in all cases: averaged IC50
[1] = biological target: His-tagged recombinant human MER cytoplasmic domain (Homo sapiens (Human), UniProt Q12866); assay: MER Enzyme Assay (LanthaScreen Eu Kinase Binding, TR-FRET)
Outline: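 Percent of control, derived from ratiometric TR-FRET emission, was fitted to a 4-parameter logistic curve and IC50 taken at 50 POC. Binding was read after 60 min at 22 °C using Eu-based LanthaScreen technology and recombinant His-tagged MER cytoplasmic domain.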

[2] = biological target: His-tagged recombinant human AXL cytoplasmic domain (Homo sapiens (Human), UniProt P30530); assay: AXL Enzyme Assay (LanthaScreen Eu Kinase Binding, TR-FRET)
Description: Compounds of Formula I were screened for their ability to inhibit AXL kinase using Invitrogen's LanthaScreen™ Eu Kinase Binding technology. […] After a 60-minute incubation at 22° C., the reaction was measured using a PerkinElmer EnVision multimode plate reader via TR-FRET dual wavelength detection, and the percent of control (POC) was calculated using a ratiometric emission factor. […] The POC values are fit to a 4 parameter logistic curve and the IC50 value is point where the curve crosses 50 POC.

[3] = biological target: GST-tagged recombinant human TYRO3 kinase domain (Homo sapiens (Human), UniProt Q06418); assay: TYRO3 Enzyme Assay (LanthaScreen Eu Kinase Binding, TR-FRET)
Outline: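 LanthaScreen Eu binding (tracer displacement) format read by TR-FRET after 60 min at 22 °C. Emission ratio converted to percent of control; IC50 taken where a 4-parameter logistic fit crosses 50 POC.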

His-tagged recombinant human MER cytoplasmic domain, sequence (Q12866 527-999): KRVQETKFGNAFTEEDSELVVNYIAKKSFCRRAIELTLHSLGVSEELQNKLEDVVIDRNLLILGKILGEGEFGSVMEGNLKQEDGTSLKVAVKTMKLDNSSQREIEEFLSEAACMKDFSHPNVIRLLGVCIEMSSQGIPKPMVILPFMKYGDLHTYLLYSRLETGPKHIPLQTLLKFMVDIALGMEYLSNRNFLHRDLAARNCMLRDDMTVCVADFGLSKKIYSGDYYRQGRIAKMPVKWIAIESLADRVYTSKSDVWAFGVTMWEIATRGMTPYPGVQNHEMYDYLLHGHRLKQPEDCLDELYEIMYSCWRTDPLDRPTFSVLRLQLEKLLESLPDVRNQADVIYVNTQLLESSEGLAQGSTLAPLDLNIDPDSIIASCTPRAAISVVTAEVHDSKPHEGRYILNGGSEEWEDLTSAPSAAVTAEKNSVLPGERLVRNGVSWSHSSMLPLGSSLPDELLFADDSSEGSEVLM
His-tagged recombinant human AXL cytoplasmic domain, sequence (P30530 473-894): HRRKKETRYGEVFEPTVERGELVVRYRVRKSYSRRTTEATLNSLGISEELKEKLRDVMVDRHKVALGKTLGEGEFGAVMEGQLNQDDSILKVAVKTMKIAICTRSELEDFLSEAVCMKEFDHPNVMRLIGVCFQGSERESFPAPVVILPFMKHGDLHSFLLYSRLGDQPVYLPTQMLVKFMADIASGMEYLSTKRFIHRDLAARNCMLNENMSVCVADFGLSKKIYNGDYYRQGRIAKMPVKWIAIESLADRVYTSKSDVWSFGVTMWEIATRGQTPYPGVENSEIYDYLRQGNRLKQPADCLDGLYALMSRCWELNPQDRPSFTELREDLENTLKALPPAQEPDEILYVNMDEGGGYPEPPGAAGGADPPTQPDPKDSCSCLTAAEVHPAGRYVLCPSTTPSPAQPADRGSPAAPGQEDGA
GST-tagged recombinant human TYRO3 kinase domain, sequence (Q06418 518-790): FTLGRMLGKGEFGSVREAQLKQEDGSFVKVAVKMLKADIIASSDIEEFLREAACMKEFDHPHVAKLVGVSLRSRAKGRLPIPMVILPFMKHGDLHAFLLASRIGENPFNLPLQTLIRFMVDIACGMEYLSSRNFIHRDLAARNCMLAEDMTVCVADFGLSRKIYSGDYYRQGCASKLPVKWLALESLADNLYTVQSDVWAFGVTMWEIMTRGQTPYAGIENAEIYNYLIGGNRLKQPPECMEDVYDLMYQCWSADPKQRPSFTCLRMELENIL

Row | IC50 [1] | IC50 [2] | IC50 [3] | SMILES
1 | < 10 nM | < 10 nM |  | CNc1cc2c(cn1)c(-c1cnn(C)c1)nn2[C@H]1CC[C@@H](Oc2cc(C(F)(F)F)ccn2)CC1 [Example 170, N-methyl-3-(1-methyl-1H-pyrazol-4-yl)-1-((1s,4s)-4-((4-(trifluoromethyl)pyridin-2-yl)oxy)cyclohexyl)-1H-pyrazolo[4,3-c]pyridin-6-amine]
2 | < 10 nM | < 10 nM |  | CNc1cc2c(cn1)n(-c1cnn(C)c1)nc2[C@H]1CC[C@@H](Oc2ccccc2F)CC1 [Example 479, 3-((1s,4s)-4-(2-fluorophenoxy)cyclohexyl)-N-methyl-1-(1-methyl-1H-pyrazol-4-yl)-1H-pyrazolo[3,4-c]pyridin-5-amine]
3 | < 10 nM | < 10 nM |  | CNc1cc2c(cn1)c(-c1cnn(CCN3CCOCC3)c1)nn2[C@H]1CC[C@@H](Oc2ccccc2F)CC1 [Example 397, 1-((1s,4s)-4-(2-fIuorophenoxy)cyclohexyl)-N-methyl-3-(1-(2-morpholinoethyl)-1H-pyrazol-4-yl)-1H-pyrazolo[4,3-c]pyridin-6-amine]
4 | < 10 nM | < 10 nM |  | CNc1cc2c(cn1)c(-c1ccc(CN3CCN(C)CC3)cc1)nn2[C@H]1CC[C@@H](Oc2ccc(=O)n(C)n2)CC1 [Example 27, 2-methyl-6-(((1s,4s)-4-(6-(methylamino)-3-(4-((4-methylpiperazin-1-yl)methyl)phenyl)-1H-pyrazolo[4,3-c]pyridin-1-yl)cyclohexyl)oxy)pyridazin-3(2H)-one]
5 | < 10 nM | < 10 nM |  | CCNc1cc2c(cn1)c(C1CCOCC1)nn2[C@H]1CC[C@@H](Oc2nccc(C(F)(F)F)c2F)CC1 [Example 317, N-ethyl-1-((1s,4s)-4-((3-fluoro-4-(trifluoromethyl)pyridin-2-yl)oxy)cyclohexyl)-3-(tetrahydro-2H-pyran-4-yl)-1H-pyrazolo[4,3-c]pyridin-6-amine]
6 | < 10 nM | < 10 nM |  | CCc1ncccc1O[C@H]1CC[C@@H](n2nc(-c3cnn(C)c3)c3cnc(NC)cc32)CC1 [Example 145, 1-((1s,4s)-4-((2-ethylpyridin-3-yl)oxy)cyclohexyl)-N-methyl-3-(1-methyl-1H-pyrazol-4-yl)-1H-pyrazolo[4,3-c]pyridin-6-amine]
7 | < 10 nM | < 10 nM |  | CNc1cc2c(cn1)c(-c1cnn(C)c1)nn2[C@H]1CC[C@@H](Oc2ccccc2C#N)CC1 [Example 363, 2-(((1s,4s)-4-(3-(1-methyl-1H-pyrazol-4-yl)-6-(methylamino)-1H-pyrazolo[4,3-c]pyridin-1-yl)cyclohexyl)oxy)benzonitrile]
8 | < 10 nM | < 10 nM |  | CNc1cc2c(cn1)c(-c1ccc3c(c1)CNC3=O)nn2[C@H]1CC[C@@H](Oc2cnn(C)c2C(F)(F)F)CC1 [Example 266, 5-(1-((1s,4s)-4-((1-methyl-5-(trifluoromethyl)-1H-pyrazol-4-yl)oxy)cyclohexyl)-6-(methylamino)-1H-pyrazolo[4,3-c]pyridin-3-yl)isoindolin-1-one]

Further lines, the compound ahead of its results:

Row | SMILES | IC50 [1] | IC50 [2] | IC50 [3]
9 | CNc1cc2c(cn1)c(-c1cnn(C)c1)nn2[C@H]1CC[C@@H](Oc2ccccc2Cl)CC1 [Example 360, 1-((1s,4s)-4-(2-chlorophenoxy)cyclohexyl)-N-methyl-3-(1-methyl-1H-pyrazol-4-yl)-1H-pyrazolo[4,3-c]pyridin-6-amine] | < 10 nM | < 10 nM | 
10 | CNc1cc2c(cn1)c(-c1cnn(C)c1)nn2[C@H]1CC[C@@H](Oc2cc(F)ccc2F)CC1 [Example 362, 1-((1s,4s)-4-(2,5-difluorophenoxy)cyclohexyl)-N-methyl-3-(1-methyl-1H-pyrazol-4-yl)-1H-pyrazolo[4,3-c]pyridin-6-amine] | < 10 nM | < 10 nM | 
11 | CNc1cc2c(cn1)c(-c1cnn(C)c1)nn2[C@H]1CC[C@@H](Oc2ccccc2)CC1 [Example 371, N-methyl-3-(1-methyl-1H-pyrazol-4-yl)-1-((1s,4s)-4-phenoxycyclohexyl)-1H-pyrazolo[4,3-c]pyridin-6-amine] | < 10 nM | < 10 nM | 
12 | CNc1cc2c(cn1)c(-c1cnn(C(C)(C)C#N)c1)nn2[C@H]1CC[C@@H](Oc2cccnc2C)CC1 [Example 202, 2-methyl-2-(4-(6-(methylamino)-1-((1s,4s)-4-((2-methylpyridin-3-yl)oxy)cyclohexyl)-1H-pyrazolo[4,3-c]pyridin-3-yl)-1H-pyrazol-1-yl)propanenitrile] | < 10 nM | < 10 nM | 
13 | CCNc1cc2c(cn1)c(-c1cnn(CC(=O)N(C)C)c1)nn2[C@H]1CC[C@@H](Oc2nccc(C(F)(F)F)c2F)CC1 [Example 259, 2-(4-(6-(ethylamino)-1-((1s,4s)-4-((3-fluoro-4-(trifluoromethyl)pyridin-2-yl)oxy)cyclohexyl)-1H-pyrazolo[4,3-c]pyridin-3-yl)-1H-pyrazol-1-yl)-N,N-dimethylacetamide] | < 10 nM | < 10 nM | 
14 | CNc1cc2c(cn1)c(-c1cnn(C)c1)nn2[C@H]1CC[C@@H](Oc2ccccc2F)CC1 [Example 353, 1-((1s,4s)-4-(2-fluorophenoxy)cyclohexyl)-N-methyl-3-(1-methyl-1H-pyrazol-4-yl)-1H-pyrazolo[4,3-c]pyridin-6-amine] | < 10 nM | < 10 nM | 
15 | CNc1cc2c(cn1)c(-c1cnn(C)c1)nn2[C@H]1CC[C@@H](Oc2ncccc2C(F)(F)F)CC1 [Example 125, N-methyl-3-(1-methyl-1H-pyrazol-4-yl)-1-((1s,4s)-4-((3-(trifluoromethyl)pyridin-2-yl)oxy)cyclohexyl)-1H-pyrazolo[4,3-c]pyridin-6-amine] | < 10 nM | < 10 nM | 
16 | CCNc1cc2c(cn1)c(-c1cn(C)c(=O)cn1)nn2[C@H]1CC[C@@H](Oc2nccc(C(F)(F)F)c2F)CC1 [Example 257, 5-(6-(ethylamino)-1-((1s,4s)-4-((3-fluoro-4-(trifluoromethyl)pyridin-2-yl)oxy)cyclohexyl)-1H-pyrazolo[4,3-c]pyridin-3-yl)-1-methylpyrazin-2(1H)-one] | < 10 nM | < 10 nM | 
17 | CNc1cc2c(cn1)c(-c1cnn(C(C)(C)CO)c1)nn2[C@H]1CC[C@@H](Oc2nccnc2C)CC1 [Example 213, 2-methyl-2-(4-(6-(methylamino)-1-((1s,4s)-4-((3-methylpyrazin-2-yl)oxy)cyclohexyl)-1H-pyrazolo[4,3-c]pyridin-3-yl)-1H-pyrazol-1-yl)propan-1-ol] | < 10 nM | < 10 nM | 
18 | CNc1cc2c(cn1)c(-c1cnn(C)c1)nn2[C@H]1CC[C@@H](Oc2cccc(F)c2F)CC1 [Example 357, 1-((1s,4s)-4-(2,3-difluorophenoxy)cyclohexyl)-N-methyl-3-(1-methyl-1H-pyrazol-4-yl)-1H-pyrazolo[4,3-c]pyridin-6-amine] | < 10 nM | < 10 nM | 
19 | CCNc1cc2c(cn1)c(-c1ccc3c(c1)CN(C)S3(=O)=O)nn2[C@H]1CC[C@@H](Oc2cnn(C)c2C(F)(F)F)CC1 [Example 224, 5-(6-(ethylamino)-1-((1s,4s)-4-((1-methyl-5-(trifluoromethyl)-1H-pyrazol-4-yl)oxy)cyclohexyl)-1H-pyrazolo[4,3-c]pyridin-3-yl)-2-methyl-2,3-dihydrobenzo[d]isothiazole 1,1-dioxide] |  | 1000 to 10000 nM | 1000 to 10000 nM
20 | CNc1cc2c(cn1)c(-c1cnn(C)c1)nn2[C@H]1CC[C@@H](Oc2cccc(Cl)c2)CC1 [Example 361, 1-((1s,4s)-4-(3-chlorophenoxy)cyclohexyl)-N-methyl-3-(1-methyl-1H-pyrazol-4-yl)-1H-pyrazolo[4,3-c]pyridin-6-amine] | < 10 nM | < 10 nM | 
21 | CNc1cc2c(cn1)c(-c1cnn(C)c1)nn2[C@H]1CC[C@@H](Oc2nccnc2C)CC1 [Example 150, N-methyl-3-(1-methyl-1H-pyrazol-4-yl)-1-((1s,4s)-4-((3-methylpyrazin-2-yl)oxy)cyclohexyl)-1H-pyrazolo[4,3-c]pyridin-6-amine] | < 10 nM | < 10 nM | 
22 | CNc1cc2c(cn1)c(-c1cnn(C)c1)nn2[C@H]1CC[C@@H](Oc2ncccc2F)CC1 [Example 122, 1-((1s,4s)-4-((3-fluoropyridin-2-yl)oxy)cyclohexyl)-N-methyl-3-(1-methyl-1H-pyrazol-4-yl)-1H-pyrazolo[4,3-c]pyridin-6-amine] | < 10 nM | < 10 nM | 
23 | CCNc1cc2c(cn1)c(-c1cnc(C)nc1)nn2[C@H]1CC[C@@H](Oc2nccc(C(F)(F)F)c2F)CC1 [Example 268, N-ethyl-1-((1s,4s)-4-((3-fluoro-4-(trifluoromethyl)pyridin-2-yl)oxy)cyclohexyl)-3-(2-methylpyrimidin-5-yl)-1H-pyrazolo[4,3-c]pyridin-6-amine] | < 10 nM | < 10 nM | 
24 | CCNc1cc2c(cn1)c(N1CC[C@H](OC)C1)nn2[C@H]1CC[C@@H](Oc2nccc(C(F)(F)F)c2F)CC1 [Example 332, N-ethyl-1-((1s,4R)-4-((3-fluoro-4-(trifluoromethyl)pyridin-2-yl)oxy)cyclohexyl)-3-((S)-3-methoxypyrrolidin-1-yl)-1H-pyrazolo[4,3-c]pyridin-6-amine] | < 10 nM | < 10 nM | 
25 | CNc1cc2c(cn1)c(-c1cnn(C)c1)nn2[C@H]1CC[C@@H](Oc2ccc(F)cc2)CC1 [Example 355, 1-((1s,4s)-4-(4-fluorophenoxy)cyclohexyl)-N-methyl-3-(1-methyl-1H-pyrazol-4-yl)-1H-pyrazolo[4,3-c]pyridin-6-amine] | < 10 nM | < 10 nM | 
